Where “and” joins values, the source holds several entries; their conditions need not be identical. Identical values can stand only once. Entries after “also recorded” stand apart in the source; their conditions may differ. Like-named read-outs stand apart in the source and are kept apart here. A value given as a limit tells only on which side of the number the result lay.

By IC50 is commonly meant the concentration that inhibits the measured activity by half. What is called Ki is a measure of affinity in units of concentration, obtained from inhibition or displacement.

The target in assay [1] is T1, Electric eel acetylcholinesterase (Electrophorus electricus, UniProt O42275).
T1 construct: purchased Sigma Co. (St. Louis, MO, USA)
T1 sequence (O42275 24-633): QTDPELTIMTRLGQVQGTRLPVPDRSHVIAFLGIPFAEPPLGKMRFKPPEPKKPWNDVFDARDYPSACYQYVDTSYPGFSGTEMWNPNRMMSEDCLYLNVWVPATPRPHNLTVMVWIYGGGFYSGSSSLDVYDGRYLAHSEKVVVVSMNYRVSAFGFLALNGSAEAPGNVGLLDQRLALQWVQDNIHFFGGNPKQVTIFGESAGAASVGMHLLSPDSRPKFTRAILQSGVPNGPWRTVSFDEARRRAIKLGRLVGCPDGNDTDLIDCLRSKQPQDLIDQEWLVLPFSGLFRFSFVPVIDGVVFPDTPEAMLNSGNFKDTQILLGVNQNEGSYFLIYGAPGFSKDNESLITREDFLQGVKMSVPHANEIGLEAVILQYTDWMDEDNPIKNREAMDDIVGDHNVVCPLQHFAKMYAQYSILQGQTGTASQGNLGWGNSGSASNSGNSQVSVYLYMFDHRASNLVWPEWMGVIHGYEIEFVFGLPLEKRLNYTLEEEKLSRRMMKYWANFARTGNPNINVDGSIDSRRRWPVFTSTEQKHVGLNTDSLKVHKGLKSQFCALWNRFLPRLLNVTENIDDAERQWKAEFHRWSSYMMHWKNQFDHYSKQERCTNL
Kind of assay: In vitro AChE inhibition assay (Ellman spectrophotometric method). It counts as biochemical. The procedure:
(§1) The inhibitory activities of isolated compounds against ChEs were measured using the spectrophotometric method, as described previously. Briefly, AChI and BCh were used as the substrates to assay the inhibition of AChE and BChE, respectively. Each reaction mixture contained 140 µL of sodium phosphate buffer (pH 8.0); 20 µL of compounds (final conc., 100 µM); and, 20 µL of either AChE or BChE solution, which was mixed and incubated for 15 min at room temperature. […] Reactions were initiated by the addition of 10 µL of DTNB and 10 µL of either AChI or BCh. […] All of the reactions were performed in triplicate and recorded in 96-well microplate format using a microplate spectrophotometer (Molecular Devices, Sunnyvale, CA, USA). Percent inhibition was calculated as (1-S/E) × 100, where E and S were the respective enzyme activities without and with the tested sample, respectively.
(In general: DTNB colorimetry detects thiols as they appear.)

In assay [2] the target is T2, human recombinant BACE1 (Homo sapiens, UniProt P56817).
T2 construct: purchased Pan Vera Co. (Madison, WI, USA)
T2 sequence (P56817 46-501): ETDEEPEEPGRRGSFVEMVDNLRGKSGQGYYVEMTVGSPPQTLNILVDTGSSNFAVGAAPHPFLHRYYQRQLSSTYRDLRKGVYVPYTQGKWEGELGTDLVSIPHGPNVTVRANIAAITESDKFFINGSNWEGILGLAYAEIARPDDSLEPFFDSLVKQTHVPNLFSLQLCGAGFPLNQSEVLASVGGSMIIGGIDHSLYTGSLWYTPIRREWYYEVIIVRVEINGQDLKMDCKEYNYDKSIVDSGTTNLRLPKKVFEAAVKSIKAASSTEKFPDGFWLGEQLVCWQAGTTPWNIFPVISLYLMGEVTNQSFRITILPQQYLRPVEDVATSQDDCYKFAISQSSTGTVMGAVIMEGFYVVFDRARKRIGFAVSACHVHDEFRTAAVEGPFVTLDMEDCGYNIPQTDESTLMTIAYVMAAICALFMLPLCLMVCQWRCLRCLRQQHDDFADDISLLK
Nature of the assay: In vitro BACE1 FRET enzyme assay. The conditions noted are these: for IC50: log dose inhibition curve; for BACE1 inhibitory activity (in words): at concentrations up to 200 µM. In kind it is biochemical. On the procedure:
Assays were performed according to the supplied manual (Pan Vera Co.) with selected modifications, as described previously. […] Fluorescence was measured with a microplate spectrophotometer (Molecular Devices). The percent of inhibition (%) was obtained by the following equation: % Inhibition = [1 − (S60 − S0)/(C60 − C0)] × 100, where C60 was the fluorescence of the control (enzyme, buffer, and substrate) after incubation for 60 min, C0 was the initial fluorescence of the control, S60 was the fluorescence of the tested samples (enzyme, sample solution, and substrate) after incubation for 60 min, and S0 was the initial fluorescence of the tested samples. To account for the quenching effect of samples, the sample solution was added to a separate reaction mixture C, and any reduction in fluorescence by the sample was investigated.

Assay [3] has as its target T3, horse serum butyrylcholinesterase (Equus caballus, UniProt P81908).
T3 construct: horse-serum BChE (EC 3.1.1.8); purchased Sigma Co. (St. Louis, MO, USA); host or cells: horse serum
Kind of assay: In vitro BChE inhibition assay (Ellman spectrophotometric method). It counts as biochemical. The procedure: as §1

The target in assay [4] is T1, Electric eel acetylcholinesterase. Nature of the assay: Enzyme kinetic analysis with AChE (Dixon and Lineweaver-Burk plots). It counts as biochemical.
Procedure: Inhibition constants (Ki) were determined by the interpretation of Dixon plots, where the x-axis intercept was taken as Ki.
On the set-up of assay [5]: method as in PMID 10319159. The conditions noted are these: cited from earlier work.
Assay [6] concerns the target T2, human recombinant BACE1. To be noted: cited from earlier work; for BACE1 inhibitory activity (in words): compounds isolated from n-BuOH fraction in earlier study.
Assay [7] has as its target T2, human recombinant BACE1. Kind of assay: Enzyme kinetic analysis with BACE1 (Dixon and Lineweaver-Burk plots). In kind it is biochemical. On the procedure: Assays were performed according to the supplied manual (Pan Vera Co.) with selected modifications, as described previously. Briefly, mixtures of 10 µL of assay buffer (50 mM sodium acetate, pH 4.5), 10 µL of BACE1 (1.0 U/mL), 10 µL of the substrate (750 nM Rh-[…]-Quencher in 50 mM, ammonium bicarbonate), and 10 µL of compounds (final conc., 100 µM) dissolved in 10% DMSO were incubated for 60 min at 25 °C in the dark. The proteolysis of two fluorophores (Rh-[…]-Quencher) by BACE1 was monitored by the formation of fluorescent donor Rh-EVNL (530–545 nm, excitation; 570–590 nm, emission), the abundance of which was determined by measuring increase in fluorescence excited at 545 nm and recorded at 585 nm. Fluorescence was measured with a microplate spectrophotometer (Molecular Devices). The percent of inhibition (%) was obtained by the following equation: % Inhibition = [1 − (S60 − S0)/(C60 − C0)] × 100, where C60 was the fluorescence of the control (enzyme, buffer, and substrate) after incubation for 60 min, C0 was the initial fluorescence of the control, S60 was the fluorescence of the tested samples (enzyme, sample solution, and substrate) after incubation for 60 min, and S0 was the initial fluorescence of the tested samples. […]

[8] abbreviates: mean ± S.E.M of triplicate experiments, read-out: BACE1 IC50.
The mark [9] stands for this setting: mean ± S.E.M of triplicate experiments, log dose inhibition curve, read-out: AChE IC50.
Where [10] appears, read: mean ± S.E.M of triplicate experiments, log dose inhibition curve, read-out: BChE IC50.

T3 sequence (P81908 whole entry): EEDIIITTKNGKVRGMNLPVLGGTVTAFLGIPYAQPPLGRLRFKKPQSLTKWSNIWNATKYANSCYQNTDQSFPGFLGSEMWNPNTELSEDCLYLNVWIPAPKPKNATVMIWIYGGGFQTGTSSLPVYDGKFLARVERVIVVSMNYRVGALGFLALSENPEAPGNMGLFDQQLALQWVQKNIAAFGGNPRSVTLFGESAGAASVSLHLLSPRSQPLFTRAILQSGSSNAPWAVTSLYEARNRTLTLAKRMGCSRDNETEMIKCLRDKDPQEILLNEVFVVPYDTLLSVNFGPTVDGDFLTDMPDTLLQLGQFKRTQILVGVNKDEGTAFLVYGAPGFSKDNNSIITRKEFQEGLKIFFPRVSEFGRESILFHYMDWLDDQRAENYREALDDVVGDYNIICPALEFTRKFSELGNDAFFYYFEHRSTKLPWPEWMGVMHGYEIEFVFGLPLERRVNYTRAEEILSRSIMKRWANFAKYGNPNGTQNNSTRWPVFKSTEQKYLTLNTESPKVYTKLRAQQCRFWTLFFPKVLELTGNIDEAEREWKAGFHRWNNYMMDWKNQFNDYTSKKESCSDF

In assay [1], `COc1ccc2cc3[n+](cc2c1OC)CCc1cc2c(cc1-3)OCO2` [Berberine, berberine, reference compound] showed an IC50 of 0.68 ± 0.01 µM.
`COc1cc(O)c2c(O)c3c(=O)cc(C)oc3cc2c1` [Compound 1, rubrofusarin]: the IC50 in assay [2] (BACE1 IC50, mean ± S.E.M of triplicate experiments) is 90 ± 2.38 µM; in assay [1], 124 ± 1.39 µM; in assay [3], above 200 µM.
Regarding `COc1cc(OC2OC(CO)C(O)C(O)C2O)c2c(O)c3c(=O)cc(C)oc3cc2c1` [Compound 2, rubrofusarin 6-O-β-D-glucopyranoside], the IC50 in assay [2] (setting [8]) is 148 µM and 191 µM; in assay [1] (setting [9]) it was 148 ± 2.09 µM; in assay [3] (setting [10]) it was above 200 µM.
Consider `COc1cc(O[C@@H]2O[C@H](CO[C@@H]3O[C@H](CO)[C@@H](O)[C@H](O)[C@H]3O)[C@@H](O)[C@H](O)[C@H]2O)c2c(O)c3c(=O)cc(C)oc3cc2c1` [Compound 3, rubrofusarin 6-O-β-D-gentiobioside], for which the Ki in assay [4] (Dixon plot, read-out: Ki Value (AChE inhibition constant)) stood at 12.8 µM. The “Inhibition Type (AChE)” value in assay [4] (Lineweaver-Burk plot) is on record as “mixed type inhibition; also recorded: Mixed type ^c”. In addition, the IC50 stood at 85.7 ± 3.98 µM in assay [2] (setting [8]), 15.9 ± 0.32 µM in assay [1] (setting [9]) and 141.2 ± 1.23 µM in assay [3] (setting [10]). Besides, the “AChE inhibition relative to 5, 6 and 4” value in assay [1] was “five times”. Also, in assay [1] (fold more effective than 1 (no sugar moiety)), the “AChE inhibition relative to 1” value is listed as “eight times”. Further, the “AChE inhibition relative to 2” value in assay [1] (fold more effective than 2 (one sugar moiety)) is “nine times”. In assay [5], the “Radical scavenging activity relative to 4” value was “twice”.
Regarding `Cc1cc(=O)c2c(O)c3c(OC4OC(CO)C(O)C(O)C4O)cc(O)cc3cc2o1` [Compound 4, nor-rubrofusarin 6-O-β-D-glucoside], the IC50 in assay [2] (setting [8]) is 86 µM and 14.4 µM; in assay [1] (setting [9]), 86 ± 2.01 µM; in assay [3] (setting [10]) it was above 200 µM. Besides, the “BACE1 inhibitory activity (in words)” value in assay [6] was “most potent BACE1 inhibitory activity”. Further, in assay [7] (Dixon plot, read-out: Ki Value (BACE1 inhibition constant)), the Ki turned out to be 10 µM. In addition, the “Inhibition Type (BACE1)” value in assay [7] (Lineweaver-Burk plot) is listed as “mixed type of inhibition; also recorded: Mixed type ^e”.
For the molecule `COc1cc(O[C@@H]2O[C@H](CO[C@@H]3O[C@H](CO)[C@@H](O)[C@H](O)[C@H]3O)[C@@H](O)[C@H](O)[C@H]2O)c2c(c1)cc(O)c1c(=O)cc(C)oc12` [Compound 5, isorubrofusarin 10-O-β-D-gentiobioside], in assay [2], the “BACE1 inhibitory activity (in words)” value is reported as “no significant inhibitory activity”. For the same molecule, the results for the 50% inhibitory concentration (IC50) in assay [2] (setting [8]), in assay [1] (setting [9]) and in assay [3] (setting [10]) were above 200 µM, 83.5 ± 1.56 µM and above 200 µM, respectively.
Regarding `COc1cc(O[C@@H]2O[C@H](CO[C@@H]3O[C@H](CO)[C@@H](O)[C@H](O[C@@H]4O[C@H](CO)[C@@H](O)[C@H](O)[C@H]4O)[C@H]3O)[C@@H](O)[C@H](O)[C@H]2O)c2c(O)c3c(=O)cc(C)oc3cc2c1` [Compound 6, rubrofusarin 6-O-β-D-triglucoside], in assay [2], the “BACE1 inhibitory activity (in words)” value is “no significant inhibitory activity”. For the same molecule, the IC50 in assay [2] (setting [8]) is above 200 µM; in assay [1] (setting [9]), 82.3 ± 1.63 µM; in assay [3] (setting [10]), above 200 µM.
As to `COc1cc(OC)c2c(=O)c(OC)c(-c3ccc(OC)c(OC)c3)oc2c1` [PMF, 3,5,7,3′,4′-pentamethoxyflavone, reference compound], the IC50 in assay [6] (read-out: BACE1 IC50, literature value for PMF) was 59.8 µM. Further, in assay [6] (reported for PMF), the BACE1 inhibitor type entry is “noncompetitive inhibitor”.
In the case of toralactone gentiobioside, the “BACE1 inhibitory activity (in words)” value in assay [6] is listed as “moderate activity”.

These data come from publication PMC6017707, “Structure Related Inhibition of Enzyme Systems in Cholinesterases and BACE1 In Vitro by Naturally Occurring Naphthopyrone and Its Glycosides Isolated from Cassia obtusifolia” (Molecules : A Journal of Synthetic Chemistry and Natural …, 2017).
